Source: patent US7456153B2, “Compounds and methods for modulating functions of classical cadherins” (Adherex Technologies Inc., priority 2002, dated 2008)

biological target: Fc-E-cadherin chimeric protein; test: BIAcore binding of peptide modulating agents to captured Fc-E-cadherin; conditions: absence of calcium
Protocol: The binding of representative peptide modulating agents to Fc-E-cadherin chimeric protein in either the presence (3 mM CaCl2) or absence of calcium was assessed using a BIAcore X™ Biosensor (Pharmacia Ltd., Sweden). Protein A was immobilized on the flow cells of a CM 5 sensor chip using a standard amine coupling method. The surfaces were activated with a 7 min injection of NHS/EDC, followed by a 7 min injection of protein A in 10 mM acetate pH 5.0 at a concentration of 50 ug/mL and blocked with a 7 min injection of […] ethanolamine, pH 8.2. […] Next, Fc-E-cadherin was injected over the protein A surface to be captured on the sensor chip.
To test compound binding to these surfaces, candidate modulating agents were injected in a three-fold dilution series over the Fc-E-cadherin-coated surfaces using six concentrations and each concentration was repeated twice.

Row | Substance | KD Fc-ECAD no Ca++
1 | AWVIPP [H-AWVIPP-NH2] | no binding
2 | DWVAPP [H-DWVAPP-NH2] | no binding
3 | DWVIAP [H-DWVIAP-NH2] | no binding
4 | DWVIPA [H-DWVIPA-NH2] | no binding
5 | DWVIPP [H-DWVIPP-NH2] | no binding
6 | PWVIPP [H-PWVIPP-NH2] | no binding

tested on: SKOV3 human ovarian cancer cells; test: Disruption of confluent SKOV3 monolayers (microscopic examination); assay type: cell-based; conditions: 1 mg/ml of culture medium, 24 hours
Protocol: We investigated the effects of the linear peptide ADH254 (H-DWVIPP-NH2; classical cadherin derived peptide) on confluent cultures of SKOV3 cells. SKOV3 human ovarian cancer cells express N-cadherin. The cells were cultured in minimum essential medium (MEM) supplemented with 10% fetal calf serum, non-essential amino acids, fungizone, penicillin-streptomycin, and gentamicin in a humidified atmosphere (5% CO2) at 37° C. All culture reagents were purchased from GIBCO (Burlington, ON). ADH254 (1 mg/ml of culture medium) was added to confluent cultures of SKOV3 cells. After 24 hours of treatment, the cells were fixed with 4% paraformaldehyde, followed by 3 washes with phosphate buffered saline, and then stained with hematoxylin. Control cultures were grown in the absence of peptide.
The peptide caused the SKOV3 cells to detach from one another and adopt an elongated, fibroblast-like morphology. These observations indicate that Trp containing peptides can disrupt cell adhesion.

Row | Substance | disruption of confluent SKOV3 monolayers
7 | DWVIPP [H-DWVIPP-NH2] | caused disruption of the confluent SKOV3 monolayers
